Measured values taken from patent EP4818157A1, “N-SUBSTITUTED CYCLIC AMIDE COMPOUND” (Kissei Pharmaceutical Co., Ltd., priority 2023, dated 2025).
Like-named read-outs stand apart in the source and are kept apart here.

How the values were obtained:
[1] = target: T1, human TSHR (Homo sapiens, UniProt P16473); assay: Measurement of antagonist activity using TSH-induced cAMP production in human TSHR-stably expressing CHO cells; type: cell-based; conditions: human TSH final concentration 50 ng/mL
T1 construct: expressed in transfected cells
Method in brief: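 CHO cells stably expressing human TSHR, in HBSS/20 mM HEPES/1 mM IBMX, pre-incubated with compound 15 min at room temperature, then stimulated 1 h at 37°C with human TSH (50 ng/mL final). cAMP measured by HTRF (665/620 nm), expressed as % of control; IC50 from concentration-response.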

[2] = target: T2, TSHR (Mus musculus, UniProt P47750); conditions: cited from earlier work
T2 construct: host or cells: mouse, in vivo (TRH- or M22-administered)
T2 sequence (P47750 22-764): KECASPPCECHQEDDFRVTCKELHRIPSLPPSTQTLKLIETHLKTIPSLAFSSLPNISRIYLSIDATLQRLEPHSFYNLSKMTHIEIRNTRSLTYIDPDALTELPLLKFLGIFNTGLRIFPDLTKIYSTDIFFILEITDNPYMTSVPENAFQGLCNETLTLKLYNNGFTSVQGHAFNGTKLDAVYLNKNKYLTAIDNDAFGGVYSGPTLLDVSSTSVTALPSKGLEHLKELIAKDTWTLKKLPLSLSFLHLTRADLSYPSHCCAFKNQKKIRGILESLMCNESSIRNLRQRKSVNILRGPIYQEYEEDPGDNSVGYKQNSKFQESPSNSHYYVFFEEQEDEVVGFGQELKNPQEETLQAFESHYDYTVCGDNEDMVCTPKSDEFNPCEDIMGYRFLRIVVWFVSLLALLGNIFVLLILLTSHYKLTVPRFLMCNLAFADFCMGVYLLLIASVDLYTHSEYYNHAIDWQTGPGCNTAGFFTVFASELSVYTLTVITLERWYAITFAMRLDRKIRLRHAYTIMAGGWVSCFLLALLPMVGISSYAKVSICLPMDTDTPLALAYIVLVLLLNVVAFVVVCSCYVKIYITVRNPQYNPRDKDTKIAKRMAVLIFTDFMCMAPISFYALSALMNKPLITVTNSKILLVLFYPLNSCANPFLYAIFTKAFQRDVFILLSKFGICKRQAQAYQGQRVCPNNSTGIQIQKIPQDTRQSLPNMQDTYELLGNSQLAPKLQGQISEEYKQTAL

T1 sequence (P16473 21-764): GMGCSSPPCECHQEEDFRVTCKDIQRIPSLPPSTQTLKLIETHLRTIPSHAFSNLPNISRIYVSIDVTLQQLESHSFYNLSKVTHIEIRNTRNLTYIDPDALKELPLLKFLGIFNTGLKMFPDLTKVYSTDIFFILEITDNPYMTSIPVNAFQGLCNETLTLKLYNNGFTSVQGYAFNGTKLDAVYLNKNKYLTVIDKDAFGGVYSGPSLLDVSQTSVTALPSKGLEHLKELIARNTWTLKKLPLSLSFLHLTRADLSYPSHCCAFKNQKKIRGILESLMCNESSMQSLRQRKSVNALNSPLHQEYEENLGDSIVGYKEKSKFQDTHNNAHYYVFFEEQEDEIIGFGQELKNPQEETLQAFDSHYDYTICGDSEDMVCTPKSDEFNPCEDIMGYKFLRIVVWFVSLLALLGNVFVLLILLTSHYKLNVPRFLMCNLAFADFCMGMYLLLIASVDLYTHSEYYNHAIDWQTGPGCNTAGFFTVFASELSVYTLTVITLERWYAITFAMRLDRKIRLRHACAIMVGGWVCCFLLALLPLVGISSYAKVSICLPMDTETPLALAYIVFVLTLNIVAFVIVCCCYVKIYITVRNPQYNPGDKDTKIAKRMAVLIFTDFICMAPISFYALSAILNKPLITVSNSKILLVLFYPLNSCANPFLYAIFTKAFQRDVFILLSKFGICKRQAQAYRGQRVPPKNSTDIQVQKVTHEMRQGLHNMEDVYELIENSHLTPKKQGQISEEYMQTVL

IC50 [1] | Structure (SMILES) | blood T4 concentration ([2]; TSH-releasing hormone (TRH)-administered mouse) | blood T4 concentration ([2]; thyroid-stimulating antibody (M22)-administered mouse)
< 3 µM | NC(=O)N[C@@H]1Cc2sccc2N(Cc2cc(C(F)(F)F)ccc2F)C1=O [Example F-5, (R)-1-(4-(2-fluoro-5-(trifluoromethyl)benzyl)-5-oxo-4,5,6,7-tetrahydrothieno[3,2-b]pyridin-6-yl)urea] | – | –
3 to 30 µM | Cc1nc2c(s1)N(Cc1cc(C(F)(F)F)ccc1F)C(=O)[C@H](NC(N)=O)C2 [Example F-6, (R)-1-(4-(2-fluoro-5-(trifluoromethyl)benzyl)-2-methyl-5-oxo-4,5,6,7-tetrahydrothiazolo[5,4-b]pyridin-6-yl)urea] | – | –
< 3 µM | CC(C)(C)OC(=O)Nc1ccc2c(c1)OC(CC(N)=O)C(=O)N2Cc1cc(C(F)(F)F)ccc1F (stereo not shown) [Example F-8, tert-butyl (2-(2-amino-2-oxoethyl)-4-(2-fluoro-5-(trifluoromethyl)benzyl)-3-oxo-3,4-dihydro-2H-benzo[b][1,4]oxazin-7-yl)carbamate] | – | –
< 3 µM | CC(C)(C)NC(=O)Nc1ccc2c(c1)nc(NC(N)=O)c(=O)n2Cc1cc(C(F)(F)F)ccc1F [Example F-9, 1-(tert-butyl)-3-(1-(2-fluoro-5-(trifluoromethyl)benzyl)-2-oxo-3-ureido-1,2-dihydroquinoxalin-6-yl)urea] | – | –
– | COc1ccc(C2Nc3ccccc3C(=O)N2Cc2ccco2)cc1COc1c(C)cc(NC(C)=O)cc1C (stereo not shown) [NCGC00242364] | lowering a blood T4 concentration | lowering a blood T4 concentration

Structure (SMILES) | IC50 [1] | blood T4 concentration ([2]; TSH-releasing hormone (TRH)-administered mouse) | blood T4 concentration ([2]; thyroid-stimulating antibody (M22)-administered mouse)
NC(=O)CC1Oc2ccccc2N(Cc2cc(C(F)(F)F)ccc2F)C1=O (stereo not shown) [Example F-7, 2-(4-(2-fluoro-5-(trifluoromethyl)benzyl)-3-oxo-3,4-dihydro-2H-benzo[b][1,4]oxazin-2-yl)acetamide] | > 30 µM | – | –
